Experimental data from patent publication US20190119204A1, “ROR GAMMA (RORy) MODULATORS” (Lead Pharma Holding B.V., priority 2016, published 2019).
Values after ≈ are worked out from the molar mass of the structure shown. Read-outs that look alike come from different tables or passages of the source.

Legend:
[1] = Aqueous equilibrated solubility; assay type: physicochemical; settings: thermodynamic from solid; aqueous phosphate buffer 50 mM pH 7.4, shaken overnight at RT; pH 7.5 = pH of the solubilized fraction
Protocol: The studied compound was accurately weighted with a target concentration of 2 mg/mL in an aqueous phosphate buffer (50 mM at pH=7.4). The solution was shaken overnight (rock'n roll shaker) at RT and protected from light (about 24 hrs). The solution was filtered in plate filter device (microplate Millipore “Solvinert” with integrated PTFE filter; 0.45 μm) and the filtrate was dosed by LC/UV method.
The studied compound was accurately weighted with a target concentration of 0.1 mg/mL in DMSO. The solution was sonicated at RT and protected from light. The reference solution was dosed by a LC/UV method and pH of the solubilized fraction was measured.

RORγ = biological target: T1, RORγ (Homo sapiens, UniProt P51449); experiment: RORγ GAL4 reporter gene assay; assay type: cell-based; settings: 293FT cells, luciferase readout; average of 5 experiments; read-out: RORγ GAL4 reporter gene assay pIC50 Average (converted)
T1 construct: expressed in transfected cells; host or cells: 293FT cells (Invitrogen), expression vector pFN26A (Promega)
T1 sequence (P51449 269-508 limits assumed): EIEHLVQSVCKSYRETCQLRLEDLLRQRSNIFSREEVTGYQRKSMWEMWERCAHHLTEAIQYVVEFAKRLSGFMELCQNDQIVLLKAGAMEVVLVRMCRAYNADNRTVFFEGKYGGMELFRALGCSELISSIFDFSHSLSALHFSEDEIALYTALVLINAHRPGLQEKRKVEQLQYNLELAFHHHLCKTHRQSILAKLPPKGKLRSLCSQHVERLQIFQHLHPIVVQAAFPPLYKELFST
Protocol: Examples 2-3 of the present […] application and example No. 37 from WO2015/082533 were tested for their ability to inhibit RORγ activity in a RORγ GAL4 reporter gene assay.
A GAL4 one-hybrid reporter system employing luciferase readout was established to determine inhibition of RORγ in 293FT cells. The RORγ ligand-binding domain (LBD) was fused to the yeast GAL4 DNA binding domain (DBD) and placed under the control of the human cytomegalovirus (CMV) immediate early promoter, using expression vector pFN26A (Promega) and standard recombinant DNA cloning methods. To serve as a control in the assay, a similar vector was generated in which the GAL4-DBD was fused to Herpes simplex virus protein 16 (VP16), a constitutive transcriptional activator.
To monitor the inhibitory effect of compounds on RORγ, a transcriptional reporter construct was used. The pGL4.35 vector (Promega) contains nine copies of the GAL4 Upstream Activator Sequence (UAS). […]
The day after transfection, cells were plated into 96 well plates, test compound was added and the plates were incubated overnight. Subsequently, the firefly luciferase activity was quantified using luciferase detection reagent and luminescence readout. […]
For compound screening, the cells were harvested (as described above) and counted. […]

CYP3A4 = biological target: T2, CYP3A4 (Homo sapiens, UniProt P08684); experiment: CYP3A4 inhibition assay; assay type: in vitro ADME; settings: human liver microsomes
T2 construct: containing human liver microsomes (0.1 mg/mL); from tissue; host or cells: human liver microsomes
Protocol: In the CYP3A4 inhibition assay, in vitro IC50 of a test compound as direct inhibitor against CYP3A4 is determined, by measuring the inhibition of the turn-over of probe substrates of CYP3A4 (Midazolam and Testosterone) to their specific metabolites i.e., 1′-Hydroxymidazolam, 6β-Hydroxytestosterone, in human liver microsomes.
Examples 2-3 of the present application and example No.37 from WO2015/082533 were tested for CYP3A4 inhibition using two different probes: midazolam and testosterone.
Test compound dissolved in DMSO at selected concentrations was added to a phosphate buffer (50 mM, pH 7.4) containing human liver microsomes (0.1 mg/mL), MgCl (6 mM) and EDTA (0.5 mM) and CYP3A probe substrate, either midazolam (3 μM). Test compound was evaluated at the concentrations 1, 3, 10 and 30 μM and the final DMSO concentration in the incubation was 0.5%. After addition of […] NADPH the mixture was incubated at 37° C. for 10 min (midazolam) or 30 min (testosterone). The reaction was terminated by addition of cold CH3CN containing internal standard, centrifuged and formation of the CYP3A specific metabolite (either 1′-hydroxymidazolam or 6-β-hydroxytestosterone) was quantified by UPLC-MS/MS. The relative CYP3A activity at each test concentration was calculated and IC50 values determined using XLfit.

[2] = biological target: T3, hERG (human Ether-à-go-go-Related Gene) potassium channel (Homo sapiens, UniProt Q12809); experiment: hERG channel patch-clamp assay; assay type: cell-based; settings: CHO cells stably expressing hERG, whole-cell patch-clamp, room temperature; read-out: hERG inhibition Assay IC50
T3 construct: expressed in transfected cells
Protocol: The hERG assay, in which hERG is brought to expression in CHO cells, provides information of the interaction of a compound with the hERG channel. The amplitude of hERG potassium channel tail currents are recorded under control and the compound solution at different concentrations. Then the IC50 value is determined from the dose-response curve.
Examples 2-3 of the present application and example No. 37 of WO2015/082533 were tested in vitro against the hERG (human Ether-à-go-go-Related Gene) potassium channel.
Frozen CHO (Chinese hamster ovary) cells stably expressing hERG channels were thawed and seeded on glass coverslips in petri dishes. Cells were cultured in HAM's F-12 media supplemented with 10% fetal bovine serum, 100 IU/mL penicillin, 100 μg/mL streptomycin and 500 μg/mL G418 (Invitrogen, Carlsbad, Calif.) in an atmosphere of 95% air/5% CO2 at 37° C. CHO cells were ready for patch-clamping after culture for 1-5 days. hERG currents were recorded at room temperature using the whole-cell patch-clamp technique with an Axopatch 200B amplifier (Molecular Devices, Sunnyvale Calif.). […] Currents were analyzed using the pCLAMP suite of software (Molecular Devices). […]

[3] = test system: IL-17A production in anti-CD3/anti-CD28 stimulated peripheral blood mononuclear cells (PBMCs); experiment: Peripheral blood mononuclear cell (PBMC) IL-17 assay; assay type: cell-based; settings: 120 h, human PBMCs, 5 days, IL-17A AlphaLISA, average of 11 human donors, read-out: PBMC IL-17 assay pIC50 Average (converted)
Protocol: Examples 2-3 of the present application and example No.37 from WO2015/082533 were tested for their ability to inhibit the IL-17A production in anti-CD3/anti-CD28 stimulated peripheral blood mononuclear cells (PBMCs) isolated from human blood.
This assay is designed to measure the levels of IL-17A secreted from anti-CD3/anti-CD28 stimulated PBMCs with the aim of measuring the inhibition of RORγ mediated IL-17A production.
The assay medium consists of 90% RPMI 1640 (Lonza), 10% heat-inactivated fetal bovine serum (FBS, Lonza) and 100 U/mL penicillin/streptomycin solution.
Anti-CD3 antibody (BD Pharmingen) was diluted to 10 μg/ml in PBS (Lonza). 30 μL of 10 μg/ml anti-CD3 solution was added to the inner 60 wells of a 96-well cell culture treated U-bottom plate (Greiner). Plates were incubated overnight (16-24 hours) at 37° C. and 5% CO2. […]
After incubation, the plates were spun down at 1500 rpm for 4 minutes and the supernatant was collected. Subsequently, the IL-17A levels in the supernatants was determined using an IL-17A AlphaLISA kit (Perkin Elmer) according to the manufacturer's protocol.
The half maximum inhibitory concentration (IC50) values for the test compounds were calculated from the IL-17A signal using GraphPad Prism software (GraphPad Software).

[4] = midazolam probe, read-out: CYP3A4 inhibition Assay IC50, Midazolam probe
[5] = testosterone probe, read-out: CYP3A4 inhibition Assay IC50, Testosterone probe

T2 sequence (P08684 whole entry): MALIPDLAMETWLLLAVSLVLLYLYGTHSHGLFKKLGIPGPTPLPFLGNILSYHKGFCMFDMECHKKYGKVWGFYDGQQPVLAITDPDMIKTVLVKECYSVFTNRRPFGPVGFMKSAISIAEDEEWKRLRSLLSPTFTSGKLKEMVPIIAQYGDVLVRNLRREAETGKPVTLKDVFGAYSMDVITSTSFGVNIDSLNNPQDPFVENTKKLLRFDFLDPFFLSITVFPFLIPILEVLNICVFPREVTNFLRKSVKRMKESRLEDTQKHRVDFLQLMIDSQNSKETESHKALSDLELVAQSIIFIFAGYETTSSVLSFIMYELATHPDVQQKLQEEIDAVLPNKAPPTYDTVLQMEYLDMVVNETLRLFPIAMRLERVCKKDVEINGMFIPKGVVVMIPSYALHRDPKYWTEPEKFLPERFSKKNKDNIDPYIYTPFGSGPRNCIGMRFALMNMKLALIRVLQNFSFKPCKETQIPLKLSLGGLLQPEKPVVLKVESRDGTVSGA
T3 sequence (Q12809 whole entry): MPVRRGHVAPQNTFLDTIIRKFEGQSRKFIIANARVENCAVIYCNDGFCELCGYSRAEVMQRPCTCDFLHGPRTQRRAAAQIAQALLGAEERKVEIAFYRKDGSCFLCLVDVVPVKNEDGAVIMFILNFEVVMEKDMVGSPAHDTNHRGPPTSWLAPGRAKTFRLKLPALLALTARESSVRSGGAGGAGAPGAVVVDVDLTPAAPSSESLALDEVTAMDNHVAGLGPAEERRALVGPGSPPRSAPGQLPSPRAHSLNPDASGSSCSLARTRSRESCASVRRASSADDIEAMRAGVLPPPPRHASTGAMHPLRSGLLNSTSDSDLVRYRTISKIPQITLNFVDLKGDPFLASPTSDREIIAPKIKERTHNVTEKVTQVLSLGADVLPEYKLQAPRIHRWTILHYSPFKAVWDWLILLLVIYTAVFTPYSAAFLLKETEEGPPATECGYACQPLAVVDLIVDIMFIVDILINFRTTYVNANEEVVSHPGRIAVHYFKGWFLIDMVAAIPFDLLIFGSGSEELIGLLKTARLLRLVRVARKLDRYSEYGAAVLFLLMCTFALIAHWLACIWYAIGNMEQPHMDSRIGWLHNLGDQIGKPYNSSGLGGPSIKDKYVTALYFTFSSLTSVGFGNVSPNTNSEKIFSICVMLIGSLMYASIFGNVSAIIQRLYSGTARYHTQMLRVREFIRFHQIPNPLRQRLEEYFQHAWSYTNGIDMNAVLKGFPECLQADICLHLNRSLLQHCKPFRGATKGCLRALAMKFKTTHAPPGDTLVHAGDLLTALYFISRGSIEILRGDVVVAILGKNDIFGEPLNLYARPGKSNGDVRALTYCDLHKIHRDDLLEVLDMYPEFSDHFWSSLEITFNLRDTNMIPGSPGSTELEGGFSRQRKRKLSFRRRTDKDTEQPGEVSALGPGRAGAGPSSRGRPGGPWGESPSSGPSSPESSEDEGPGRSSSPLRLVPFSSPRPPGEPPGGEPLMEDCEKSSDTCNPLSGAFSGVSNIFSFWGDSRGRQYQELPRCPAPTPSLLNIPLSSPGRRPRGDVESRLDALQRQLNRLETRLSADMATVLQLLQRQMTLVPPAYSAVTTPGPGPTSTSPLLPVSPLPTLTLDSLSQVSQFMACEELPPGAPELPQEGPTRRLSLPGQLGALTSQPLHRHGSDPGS

Row | solubility at 24 h [1] [µg/mL] | IC50 (RORγ) [µM] | IC50 (CYP3A4; [4]) [µM] | IC50 (CYP3A4; [5]) [µM] | Structure (SMILES) | IC50 [2] [µM] | IC50 [3] [µM]
1 | 94.8 (≈ 205 µM) | – | – | – | O=C(Cc1ccc([S@@+]([O-])CC2CC2)cc1)Nc1ccc([C@@](O)(C(F)F)C(F)(F)F)cc1 (single isomer, unassigned) [Example 10] | – | –
2 | 92.5 (≈ 200 µM) | – | – | – | O=C(Cc1ccc([S@@+]([O-])CC2CC2)cc1)Nc1ccc([C@](O)(C(F)F)C(F)(F)F)cc1 (single isomer, unassigned) [Example 11] | – | –
3 | 94.4 (≈ 205 µM) | – | – | – | O=C(Cc1ccc([S@+]([O-])CC2CC2)cc1)Nc1ccc([C@@](O)(C(F)F)C(F)(F)F)cc1 (single isomer, unassigned) [Example 12] | – | –
4 | 93 (≈ 202 µM) | – | – | – | O=C(Cc1ccc([S@+]([O-])CC2CC2)cc1)Nc1ccc([C@](O)(C(F)F)C(F)(F)F)cc1 (single isomer, unassigned) [Example 13] | – | –
5 | < 1 | 0.0398 | 24 | 13 | O=C(Cc1ccc(S(=O)(=O)CC2CC2)cc1)Nc1ccc([C@@](O)(C(F)F)C(F)(F)F)cc1 [Example 2, (+)-2-[4-(cyclopropylmethylsulfonyl)phenyl]-N-[4-[(1R)-1-(difluoromethyl)-2,2,2-trifluoro-1-hydroxy-ethyl]phenyl]acetamide] | 14.2 | 0.0631
6 | < 1 | 0.0126 | > 30 | 16 | O=C(Cc1ccc(S(=O)(=O)CC2CC2)cc1)Nc1ccc([C@](O)(C(F)F)C(F)(F)F)cc1 [Example 3, (−)-2-[4-(cyclopropylmethylsulfonyl)phenyl]-N-[4-[(1S)-1-(difluoromethyl)-2,2,2-trifluoro-1-hydroxy-ethyl]phenyl]acetamide] | 11.2 | 0.0251
7 | 99.4 (≈ 215 µM) | – | – | – | O=C(Cc1ccc([S+]([O-])CC2CC2)cc1)Nc1ccc(C(O)(C(F)F)C(F)(F)F)cc1 (centres unmarked) [Example 9, 2-[4-(cyclopropylmethylsulfinyl)phenyl]-N-[4-[1-(difluoromethyl)-2,2,2-trifluoro-1-hydroxy-ethyl]phenyl]acetamide] | – | –
